Measured values reported in US4452986A, “Imidazolyl-substituted benzofurans” (The Upjohn Company, priority 1982, dated 1984).
Counter-ions that a name gives are not always drawn.

Molecular target: T1, TXA2 synthetase (human platelet microsomes) (Homo sapiens, UniProt P24557)
T1 construct: human platelet microsomes (HPM); from tissue; host or cells: human platelets (microsomes)
T1 sequence (P24557 1-533): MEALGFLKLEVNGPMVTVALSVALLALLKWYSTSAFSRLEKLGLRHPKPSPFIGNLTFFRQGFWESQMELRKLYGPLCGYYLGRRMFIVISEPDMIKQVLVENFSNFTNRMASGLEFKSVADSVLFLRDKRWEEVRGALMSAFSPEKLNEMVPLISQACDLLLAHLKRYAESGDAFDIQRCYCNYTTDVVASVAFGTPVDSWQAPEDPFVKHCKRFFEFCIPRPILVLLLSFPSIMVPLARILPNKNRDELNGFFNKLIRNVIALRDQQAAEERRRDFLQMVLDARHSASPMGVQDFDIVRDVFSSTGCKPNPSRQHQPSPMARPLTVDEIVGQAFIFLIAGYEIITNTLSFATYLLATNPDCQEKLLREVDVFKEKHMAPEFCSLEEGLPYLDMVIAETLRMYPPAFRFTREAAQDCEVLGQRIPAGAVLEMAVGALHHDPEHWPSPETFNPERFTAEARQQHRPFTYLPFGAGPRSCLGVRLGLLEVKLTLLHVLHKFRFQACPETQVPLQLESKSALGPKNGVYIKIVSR
Assay: TXA2 inhibition test: TXA2 generated from PGH2 with human platelet microsomes, response of superfused rabbit aortic strips
Assay type: biochemical
Settings: human platelet microsomes + PGH2, rabbit aorta bioassay
Method: The compounds of the present invention were tested for TXA2 inhibition as follows:
Rabbit aortic strips were superfused in series with Krebs solution. Thromboxane A2 (TXA2) was generated by mixing prostaglandin H2 (PGH2) with human platelet microsomes (HPM).
Potential inhibitors were tested by comparing the response of the rabbit aorta to the amount of TXA2 produced by mixing PGH2 and HPM without the test compound in the reaction medium and then the amount of TXA2 produced when the test compound was added to the HPM 5 minutes before the HPM was mixed with PGH2. […] For a discussion of TXA2 synthetase inhibition testing see, e.g., R. Gorman, supra.

## O=C(O)c1cc2cc(Cn3ccnc3)ccc2o1 [Example 3, 5-N-Imidazolylmethyl-benzofuran-2-carboxylic Acid, Sodium Salt]
  effectiveness in inhibiting TXA2 formation (rank among tested compounds): most effective
